This note sets out measurements from patent US20040214270A1, “Isocitrate dehydrogenase, gene thereof, and use of the same in the treatment of obesity, hyperlipidemia, and fattly liver in lipid biosynthesis” (priority 2000, published 2004).

Assay [1] relates to NIH3T3 L1 cells into which only pLNCX vector was introduced. Description: Differentiation of adipocytes and oil deposition according to concentration of NADPH (Oil-Red-O). It is filed as cell-based, mouse. Here is the method: To examine the influence of IDPc on the synthesis of fatty acids, the transfectant cell lines were cultured in 10% FBS-supplemented DMEM containing insulin 5 μg/ml, 0.5 mM 3-isobutyl-1-methylxanthine (IBMX, Sigma), 1 μM dexamethasone (DEX), and penicillin-streptomycin (Gibco BRL), each 50,000 units, for two days to increase the counts of the cells to a density of approximately 3×10^4 cells/cm^2. Thereafter, the cells were further cultured for 12 days in DMEM free of IBMX and DEX while the medium was refreshed every other day. Cell culturing was carried out in a CO2 incubator at 37° C. under a wet, 5% CO2 atmosphere.
After culturing, the cells were treated with Oil-Red-O, which specifically dyes oil, to observe oil deposits formed in adipocytes. In this connection, the medium was depleted, after which 10 ml of a cacodylate buffer (90 mM cacodylate, pH 7.2, 2% formaldehyde, 2.5% glutaraldehyde, 0.025% CaCl2, 5% sucrose) was added to the cells, which was then allowed to stand at 4° C. for 1 hour. After removal of the buffer, 5 ml of Oil-Red-O in 40% isopropanol was added to the cells and slowly mixed over 1 hour, followed by washing with 40% isopropanol.
The effect of NADPH, a metabolic product of IDPc, on the deposition of cellular oils was quantitatively measured with Oil-Red-O, a dye specific for lipids. […]

The target in assay [2] is isocitrate dehydrogenase (Mus musculus, UniProt O88844). Nature of the assay: Screening of inhibitors against isocitrate dehydrogenase (spectrophotometry, absorbance at 340 nm). It is filed as biochemical. The following applies: change in absorbance at 340 nm with time, 25° C. Here is the method:
In this connection, spectrophotometry is very useful. In more detail, first, a spectrophotometer is adjusted to zero absorbance at 340 nm using a mixture of a ten-fold concentrated reaction buffer plus 3rd distilled water. After a crystal cuvette containing the 10× buffer, a test sample and 3rd distilled water is installed in the spectrophotometer, isocitrate dehydrogenase is added to the cuvette and a measurement is made of the change in absorbance at 340 nm with time.
Because an absorbance decreases faster in the cuvette containing a greater concentration of a sample inhibitory against the activity of the enzyme, the analysis of the spectrophotometric data enables the screening of inhibitors of isocitrate dehydrogenase.
An assay buffer (50 mM MOPS, pH 7.2, 35.5 mM triethanolamine, pH 7.2, 2 mM NADP^+, 2 mM MgCl2, 5 mM isocitrate, rotenone 1 mg/ml) and test samples were all prepared at 10× concentration. Enzymatic reactions necessary for the selection were conducted in a final volume of 1 ml at 25° C. in crystal cuvette. For use, the concentrated test samples were diluted with 3rd distilled water. The assay buffer, enzyme inhibitors, and isocitrate dehydrogenase, which all at 10× concentration, were maintained at low temperature, i.e., in ice.
A spectrophotometer was first subjected to null adjustment at 340 nm using the 10× assay buffer and 3rd distilled water. 100 μl of the sample was added, along with 100 μl of the 10× assay buffer, in a crystal cuvette, and mixed with 600 μl of 3rd distilled water. After the completion of the null adjustment, the sample cuvette was installed in the spectrophotometer, followed by adding 200 μl of isocitrate dehydrogenase and mixing the solution with the aid of a pipette. Changes in absorbance at 340 nm were monitored with time. In principle, an absorbance decreases faster in the cuvette containing a greater concentration of a sample inhibitory against the activity of the enzyme. Based on this principle, the quantification of the spectrophotometric data enabled the screening of inhibitors of isocitrate dehydrogenase.

The test system of assay [3] is 3T3-L1 cells. Description: Prevention of oil deposition in 3T3-L1 by isocitrate dehydrogenase inhibitor (Oil-Red-O). The class given is cell-based, mouse. As to conditions: cells treated with inhibitor vs no isocitrate inhibitors, FIG. 9. The source says:
After being treated with the isocitrate dehydrogenase inhibitors methyl isocitric acid and oxalomalic acid, 3T3-L1 cells, which remain undifferentiated, were examined for their differentiation to adipocytes. Effects of the isocitrate dehydrogenase inhibitors on fatty acid synthesis could be identified through the visualization using Oil-Red-O, a oil-specific dye.

For assay [4], the system named is rats. Nature of the assay: Restrictive effect of isocitrate dehydrogenase inhibitor on obesity in rats. The class given is in vivo, rat. Here is the method: 26 weeks after birth, rats were compared for cellular lipid deposition when they were treated with no isocitrate dehydrogenase inhibitors and methyl isocitric acid.
A container suitable for receiving a rat was placed on a scale which was then subjected to null adjustment, after which a rat was carefully put in the container.
The livers and adipose tissues taken from inhibitor-administered rats and non-administered rats were homogenized in a buffer (0.32 M sucrose, 0.01 M Tris-Cl pH 7.4) and centrifuged at 3,000×g for 10 min. Again, the supernatant was centrifuged at 10,000×g for 15 min. A pure cytosolic fraction was obtained as the supernatant. The enzyme activity of IDPc was determined by measuring the change in the production amount of NADPH in a buffer (50 mM MOPS, pH 7.2, 35.5 mM triethanolamine, pH 7.2, 2 mM NADP^+, 2 mM MgCl2, 5 mM isocitrate, and rotenone 1 μg/ml) maintained at 25° C. Using a spectrophotometer, absorbance at 340 nm was measured for 2 min to quantify the amount of NADPH produced by the IDPc contained in the cytoplasmic protein, thereby determining the enzyme activity of IDPc. For the quantification of the enzyme, the amount which produced 1 μM of NADPH in 1 min was defined as 1 unit. Protein quantification was performed according to the Bradford assay.
In order to measure the blood triglyceride levels and total cholesterol, assay kits manufactured by Asan Pharmaceutics. Co. Ltd. were used. After being treated with an anti-coagulant, blood taken from the inhibitor-administered rats and non-administered rats was centrifuged to obtain sera. 10 μl of each of the sera was mixed with 1.5 ml of a triglyceride-assay kit [a solution of lipoproteinase 10800 U, glycerol kinase 5.4 U, peroxidase 135000 U, and L-α-glycerophosphate oxidase 160 U in 72 ml of N,N-bis(2-hydroxyethyl)-2-aminomethanesulfonic acid buffer] or 1.5 ml of a cholesterol enzyme-assay kit (a mixture of an enzyme solution (cholesterol esterase 20.5 KU/l, cholesterol oxidase 10.7 KU/l, and sodium hydroxide 1.81 g/l) and a buffer (potassium monophosphate 13.6 g/l, phenol 1.88 g/l) in the proportions of 1:1) and incubated at 37° C. for 5 min for reaction. In a microplate reader, a measurement was done by reading absorbance at 500 nm for cholesterol and at 540 nm for triglyceride, so as to quantify blood levels of triglyceride and total cholesterol. In connection to the quantification of triglyceride and cholesterol, there was utilized a standard curve which was obtained by applying the above procedure to various known concentrations of a standard solution.
A predetermined amount of the liver was taken from both the inhibitor-administered mice and non-administered mice and homogenized in 1 ml of CIAA (chloroform:isoamyl alcohol=2:1 v/v). 100 μl of the homogenate was dissolved in 200 μl of pure ethyl alcohol and mixed with 500 μl of each of the assay kits for triglyceride and cholesterol, manufactured by Asan Pharmaceutics, Co. Ltd., containing 0.5% Triton X-100 and 3 mM sodium cholate, followed by incubation at 37° C. for 10 min. After being added with 800 μl of water, each sample was measured for liver triglyceride and total cholesterol levels with the aid of a microplate reader in the same manner as in above. Likewise, the above procedure was applied to various known concentrations of a standard solution to acquire a standard curve which was used to quantify triglyceride and cholesterol levels in the liver.

The structures appear in SMILES notation. Entries after “also recorded” stand apart in the source; their conditions may differ.

Chain of isocitrate dehydrogenase (O88844 whole entry): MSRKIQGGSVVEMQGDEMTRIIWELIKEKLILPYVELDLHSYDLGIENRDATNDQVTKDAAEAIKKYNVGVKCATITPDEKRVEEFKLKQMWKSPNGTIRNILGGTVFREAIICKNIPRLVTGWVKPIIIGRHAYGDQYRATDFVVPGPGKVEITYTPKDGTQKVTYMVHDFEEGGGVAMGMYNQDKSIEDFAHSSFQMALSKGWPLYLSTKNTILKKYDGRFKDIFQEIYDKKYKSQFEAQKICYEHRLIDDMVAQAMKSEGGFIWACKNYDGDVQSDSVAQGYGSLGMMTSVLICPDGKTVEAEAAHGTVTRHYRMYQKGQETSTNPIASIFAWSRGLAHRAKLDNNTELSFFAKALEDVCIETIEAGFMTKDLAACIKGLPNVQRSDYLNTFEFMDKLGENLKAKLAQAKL

Regarding `NC(=O)C1=CN([C@@H]2O[C@H](COP(=O)(O)OP(=O)(O)OC[C@H]3O[C@@H](n4cnc5c(N)ncnc54)[C@H](OP(=O)(O)O)[C@@H]3O)[C@@H](O)[C@H]2O)C=CC1` [NADPH], the “oil deposits formed within cells (Oil-Red-O)” value in assay [1] (NADPH added at 0 μM, 25 μM and 50 μM to the media during differentiation into adipocytes) is listed as “accumulated greater amounts of oils; also recorded: larger intracellular lipid deposits”. For the same molecule, the differentiation of adipocytes entry in assay [1] (differentiated in the presence of NADPH, increasing concentration) is recorded as “direct positive influence on the differentiation of adipocytes; also recorded: higher differentiation rates”.
For the molecule `NC(=O)c1cccnc1` [nicotine amide], the “inhibitory activity against isocitrate dehydrogenase” value (“inhibitory activity” for short) in assay [2] is listed as “No inhibitory activity”.
Regarding `O=C(O)C(=O)C(C(=O)O)C(O)C(=O)O` (stereo not shown) [oxalomalic acid], in assay [3], the “cellular oil deposits dyed with Oil-Red-O” value is given as “reducing cellular oil deposits”. For the same molecule, the “inhibitory activity” value in assay [2] is listed as “strong inhibitory activity; also recorded: definite inhibitory activity”.
With `CC(NC(C)(C)C)C(=O)c1cccc(Cl)c1` (stereo not shown) [bupropion], in assay [2], the “inhibitory activity” value is reported as “only a little inhibitory activity; also recorded: a little inhibitory effect”.
For the molecule `CC(O)(C(=O)O)C(CC(=O)O)C(=O)O` (stereo not shown) [methyl isocitric acid], in assay [4], the “arteriosclerosis index, lower” value came to 10. In addition, the “body weight, inhibitor-administered vs non-administered rats” value in assay [4] (10-weeks old) is on record as “No significant difference”. Moreover, in assay [4] (FIG. 10a), the “weight of epididymal fat pad, lower compared to non-administered rats” value is “about 12%” and the “weight of the liver, inhibitor-administered vs normal rats” value is “no difference”. Besides, in assay [4] (FIG. 10b), the “blood level of total cholesterol, lower compared to non-administered rats” value was 11% and the “blood level of triglyceride, lower compared to non-administered rats” value was 20%. Also, in assay [4] (blood, FIG. 10c), the “high-density lipoproteins (HDL) level, higher compared to non-administered rats” value was 11%. Besides, the “cellular oil deposits dyed with Oil-Red-O” value in assay [3] was “reducing cellular oil deposits”. Besides, the “inhibitory activity” value in assay [2] is recorded as “strong inhibitory activity; also recorded: definite inhibitory activity”.
As to `O=C(O)c1cccnc1` [nicotinic acid], the “inhibitory activity” value in assay [2] was “No inhibitory activity”.
